Reference: patent publication US9023767B2, “γ-Secretase substrates and methods of use” (Memorial Sloan-Kettering Cancer Center, priority 2009, dated 2015)

How the values were obtained:
[1] = biological target: T1, γ-secretase (Homo sapiens (Human), UniProt P49768+Q92542); assay: In vitro γ-secretase assay, HeLa membrane, APP-derived substrates, ECL detection; format: biochemical; details: S4 substrate
Description: The recombinant proteins were incubated with γ-secretase (40 μg/ml) in the presence or absence of 1 μM γ-secretase inhibitor L-685,458 (CAS [292632-98-5], shown below). The reaction mixture contains 0.25% 3[(3-cholamidopropyl) dimethylammonio]-2-hydroxypropanesulfonic acid (CHAPSO), 0.1 μg/μl BSA, protease inhibitor, 50 mM PIPES, pH 7.0, 5 mM MgCl2, 5 mM CaCl2 and 150 mM KCl. The reaction was incubated for 2.5 hr at 37° C. and stopped by adding RIPA buffer (150 mM NaCl, 1.0% NP-40, 0.5% sodium
[drawing 1] deoxycholate, 0.1% SDS, 50 mM Tris HCl, pH 8.0). The products were detected with various antibody combinations as previously described (Lai et al., 2003; J. Biol. Chem., 278: 22475-22481; Li et al., 2000, Proc. Natl. Acad. Sci. USA, 97: 6138-6143; Yin et al., 2007, J. Biol. Chem., 282:23639-23644) using electrochemiluminescence (ECL). The amount of product was determined using synthetic peptide or recombinant standards. The Km and Vmax were determined from the Michaelis-Menten equation Michaelis-Menten Kinetics (ν=Vm[S]/([…]; ν: initial rate; Vm: maximum velocity; Km: the Michaelis-Menten constant, S: substrate). P-values were calculated from Student t-test. 7.1.5 Cell-Based Aβ Production Assay and Western Blot

[2] = biological target: T2, γ-secretase (Homo sapiens (Human), UniProt P49768); assay: Notch1 processing in ΔE-Notch1 transfected HEK293 cells, NICD Western blot; format: cell-based; details: 2 μM, 48 hrs
Description: FIG. 5. […] The conditioned media were collected and secreted Aβ40 was measured with 6E10/G2-10 antibodies (mean±SEM; n=3). The activities of the peptide treatments were normalized to the DMSO treatment. […] The same experiments were performed as FIG. 5c. The cell lysates were analyzed by CT-15 antibody. Upper panel: full length APP. Lower panel: CTFs. […] The ΔE-Notch1 (a Notch construct with deletion of the extracellular portion and tagged by Myc) was transfected into HEK293 cells.

[3] = tested on: A20 mouse lymphoma cells; assay: Lymphoma cell proliferation assay, [3H]thymidine incorporation; format: cell-based; details: 48 hours
Description: For a lymphoma cell proliferation assay, A20 mouse lymphoma cells were seeded in a 96-well plate at a concentration of 5×10^5 cells/ml in 100 μl RPMI media containing 2% fetal bovine serum. An additional 100 μl of media containing DMSO or γ-secretase inhibitor was added and incubated for 48 hours at 37° C. After this incubation, the cells were incubated for 5 hours with 2 μCi/ml [^3H]thymidine at 37° C. Proliferative response was then evaluated by harvesting the tritiated DNA from cells using a Skatron cell harvester and proliferation assessed as a function of [^3H]thymidine incorporation measured on a β-counter.

[4] = biological target: T2, γ-secretase; assay: HTRF γ-secretase assay with Sb4 substrate; format: biochemical; details: 384-well, 2% DMSO; read-out: IC50, HTRF assay
From the text: We set out to transfer the assay conditions obtained with the ECL method to an HTRF detection based format (FIG. 10b). The HTRF detection mixture consisted of mouse G2-10 antibody for recognition of the C-terminal epitope of the cleaved product, a Europium-labeled anti-mouse antibody (commonly, an antibody is conjugated with a cryptate ligand that forms a three dimensional coordination cage structure surrounding a lanthanide such as Eu^3+), along with Streptavidin conjugated to a trimeric form of the fluorescent protein allophycocyanin referred to as XL665. Cleavage of Sb4 substrate allows G2-10 mouse antibody to bind to the Aβ40-processed site on the cleaved substrate. The Steptavidin-XL665 conjugate binds directly with the biotin moiety on the N-terminal end of the Sb4 derived product. The anti-mouse Europium antibody targets to the G2-10 antibody, bringing all of these entities into close proximity. The Europium and XL665 reagents are a compatible pair of donor-acceptor fluorophores, and excitation of Europium at 337 nm results in fluorescence energy resonance transfer (FRET) to XL665 which fluoresces at 665 nm (FIG. 10b).
Human γ-secretase was prepared from HeLa cell membranes as described previously (Li et al., 2000). Briefly, HeLa cell pellet was resuspended in 1×MES buffer (50 mM MES, pH 6.0, 150 mM KCl, 5 mM CaCl2, 5 mM MgCl2) and treated with ‘complete’ protease inhibitor (Boehringer Mannheim). The resuspended pellet was mechanically homogenized by passing the cells through the French Press (Spectronic Instruments), and subsequently spun down at 800 g to remove cell debris and nuclei. Next, the supernatants were spun at 100,000 g in order to pellet the membranes. The pelleted membranes were resuspended in 1×MES buffer to approximately 12 mg/ml. This entire procedure was performed at 4° C. HeLa membranes were solubilized using 1% CHAPSO detergent in 1×MES buffer with protease inhibitors. After incubating for 1 hr at 4° C., the membrane was spun down at 100,000 g and the supernatants were collected and stored at −70° C. The collected fraction is defined as solubilized γ-secretase.
HTRF conditions were initially optimized in a 384-well format using a final volume of 20 μl. The high control for this assay was defined as the observed γ-secretase activity in the presence of 1% DMSO (v/v) and the low control as the activity observed when including 100 nM final concentration of Compound E (v/v). First, we determined a tolerable DMSO concentration that would not interfere with γ-secretase activity. Even with 3% DMSO (v/v) present in the assay mixture, there was virtually no effect on the γ-secretase activity (FIG. 11a), which was critical as delivery of library screening compounds required a final concentration of 2% DMSO (v/v) in the γ-secretase reaction. Next, we titrated the HTRF mixture components in an effort to minimize reagent costs for use in high throughput screening. […] Additionally, we varied Europium conjugated anti-mouse antibody and determined that 1 nM of this reagent in the HTRF mixture was sufficient for our assay conditions even though the signal continued to increase with higher concentrations of the anti-mouse antibody (FIG. 11c).
We have further miniaturized the HTRF assay from the established 384-well format to a 1536-well platform enabling more efficient screening of large chemical libraries. […] Based on these optimization experiments, we set our final assay conditions at 0.3 nM G2-10, 1 nM anti-mouse antibody, 15 nM Streptavidin-XL665, and proceeded with the assay at 10 μl final volume (5 μl γ-secretase mix+5 μl HTRF mix) in the 1536-well format for screening.
The pilot assay was performed in duplicate on two separate days to account for any day-to-day variability. […]

[5] = biological target: T1, γ-secretase; assay: Photoaffinity labeling of γ-secretase in HeLa membrane by Aβ17-23BPA20-biotin; format: binding; details: inhibitor at 2 μM
Description: FIG. 4. […] Various concentrations of inhibitor were incubated with APP substrate (S4) or Notch peptide substrate containing the C-terminal biotinylated transmembrane domain of Notch1 and HeLa cell membrane in the presence of 0.25% CHAPSO. Aβ40 was detected by G2-10 antibody. The cleaved Notch product was detected by Val1744 antibody that specifically recognizes the cleaved product between Gly1743 and Val1744. Activities are expressed as percentage relative to reading that was produced in DMSO control. […] Various concentrations of S4 substrate were incubated with HeLa membrane in fixed concentrations of inhibitor as indicated. The double reciprocal velocity (1/v) and substrate concentrations (1/S) are plotted to determine the type of inhibition. […] Assays were conducted as described in FIG. 4A. […] The labeled samples were solubilized with RIPA buffer. Biotinylated proteins were captured with streptavidin-agarose and probed by immunoblotting using antibodies against biotin, PS1-CTF, PS1-NTF, Nicastrin, PEN-2 and APH-1a. HeLa cell membrane proteins were directly loaded onto lanes indicated by an arrow in the PEN-2 and APH-1a blots as positive controls. […] Upper panel: PS1-NTF; Lower panel: PS1-CTF.
The labeled proteins were eluted with 2×SDS sample buffer and analyzed with Western blotting using antibodies against the components of γ-secretase complex. Protein concentration was determined with the Dc protein assay kit (Bio-Rad)
After the photolyzed membranes were solubilized, biotinylated proteins were captured, eluted and analyzed by western blotting with antibodies against biotin, PS1, nicastrin, PEN-2 and APH-1.

CC(C)C[C@H](NC(=O)[C@H](Cc1ccccc1)C[C@@H](O)[C@H](Cc1ccccc1)NC(=O)OC(C)(C)C)C(=O)N[C@@H](Cc1ccccc1)C(N)=O [L-685,458]
type of inhibition (Lineweaver-Burk) [1]: competitive inhibition | production of NICD [2]: NICD was not detected | inhibition of cellular proliferation [3]: able to inhibit cellular proliferation | IC50 [4]: 1.4 nM | block of photo-crosslinking of PS1-CTF and PS1-NTF by Aβ17-23BPA20-biotin [5]: completely blocked
